# Assay results published in paper PMC8312610, “F4, a collagen XIX-derived peptide, inhibits tumor angiogenesis through αvβ3 and α5β1 integrin interaction” (Cell Adhesion & Migration, 2021).
# Positions of bridges follow the written chain, without caps; N, C: chain ends. No end group written: not given here.
# Tests used:
# [1] = test system: Sprague Dawley rat aortic rings; experiment: Ex vivo rat aortic ring assay (endothelial cell outgrowth); type: cell-based
# Experimental: Figure 3. NC1(XIX) and F4 inhibit endothelial cell ex vivo migration. Rat aortic rings were embedded in Matrigel in 24 well-plate and then incubated with or without 40 μM NC1(XIX) or F4 for 14 days. Micro-vessel outgrowth was observed under an inverted microscope after 14 days and photographed (a). Cell outgrowth from the tissue explant was measured using a home-made macro based on ImageJ analysis software. The results are presented as mean ± SD (n = 5 replicates) (b). The experiment was repeated twice (N = 2)
# The ex vivo rat aortic ring assay was adapted from Baker et al.. Thoracic aorta was dissected from Sprague Dawley rat and stored in Opti-MEM (ThermoFisher, ref 31985062) supplemented with 1% penicillin/streptomycin in a Petri dish. Aorta was then cut into 0.5 mm rings that were incubated in Opti-MEM overnight at +37°C in a Petri dish. Matrigel (7 mg/mL) was loaded in 24-well plate and allowed to polymerize at +37°C for 30 min. The rings were carefully transferred from the Petri dish onto the Matrigel coated wells and were completely embedded by addition of Matrigel. The plate was incubated at +37°C for 30 min. Opti-MEM supplemented with 30 ng/mL VEGF with or without 40 μM NC1(XIX) or F4 was added. Plate was incubated at +37°C in a humid atmosphere containing 5% CO2 for 14 days. The supplemented culture medium was changed every 3 days. Rings were imaged under an inverted light microscope at 14 days. Quantitative evaluation of the angiogenic sprouting was determined by measuring the number of endothelial cell outgrowth from the primary tissue explant using a homemade macro based on ImageJ analysis software. The first step consisted in the semi-automatic selection of aortic ring shape at day 0 by manual threshold allowing the design of a top hat filter to obtain a relevant mask of this structure. The mask was then substracted from day 14 image to keep only outgrowing cells. The second step consisted in a manual threshold and the use of ‘Analyze Particules’ tool involving size criteria. The total cell number of cell outgrowing from the ring was determined.
# mouse melanoma model = details: previously demonstrated by the authors, no ref in abstract; cited from earlier work
# Source text: (§1) The aim of the present work was to study the anti-angiogenic properties of F4 peptide. […] By affinity chromatography, we identified αvβ3 and α5β1 integrins as potential receptors for F4 peptide on endothelial cell surface. Using solid phase assays, ... || Type XIX collagen, that belongs to the FACIT family (Fibril-Associated Collagens with Interrupted Triple helices), is a minor collagen associated to the basement membrane zone.
# melanoma cell = details: cited from earlier work
# Source text: as §1
# α5β1 integrin = experiment: Solid phase assay, direct binding to α5β1; design: species or system human; details: solid phase assays
# Source text: Figure 5. F4 directly binds to αvβ3 and α5β1 integrins. Direct interaction between αvβ3 or α5β1 integrin and F4 was studied using solid phase assays as described in the material and method section. The F4 peptide was biotinylated to allow its detection using the streptavidin-peroxidase complex. Different conditions were used. (a-b) The amounts of coated αvβ3 (a) or α5β1 integrin (b) were increased while biotinylated F4 peptide was kept constant. (c-d) The concentration of biotinylated F4 peptide was increased while coated amounts of αvβ3 (c) or α5β1 (d) integrins were kept constant. (e-f) Competitive assays were performed using increasing concentrations of F4 peptide while biotinylated-F4 peptide and αvβ3 (e) or α5β1 (f) integrins were kept constant. […]
# Wells of a 96-well plate were coated with α5β1 (ref. 3230-A5-050, R&D systems) and/or αvβ3 integrin (ref. 3050-AV-050, R&D systems) at different concentrations ranging from 26 × 10^−7 mol/L to 0.1 × 10^−7 mol/L (100 μL per well in PBS). […] The intensity of the yellow coloration was measured at 450 nm with an LB940 spectrophotometer (Berthold Technologies).
# The optimum integrin amount for the coating was determined using the above protocol and the optimum ligand concentration was sought using different dilutions of the biotinylated-F4 peptide ranging from 20.8 × 10^−4 to 0.16 × 10^−4 mol/L.
# tumor cell = test system: tumor cell; design: method as in PMID 26621838; details: in vitro; ref [36]; cited from earlier work
sequence,measurement,setting,value
"CNPEDCLYPVSHAHQR (disulfide 1-6 (inferred)) [F4, collagen XIX-derived peptide, released by plasmin from type XIX collagen]","cell outgrowth, F4 compared with NC1(XIX)","[1]; 40 μM, 14 days, Opti-MEM with 30 ng/mL VEGF",even stronger than NC1(XIX) effect
same,change of cell outgrowth from aortic ring vs control,"[1]; 40 μM, 14 days, Opti-MEM with 30 ng/mL VEGF, Matrigel, mean ± SD (n = 5), N = 2, p < 0.01 NC1(XIX), p < 0.001 F4",−78%
same,"anti-angiogenic effect on aortic endothelial sprouting, F4 compared with NC1(XIX) (discussion)",[1]; ex vivo,even greater than the whole NC1(XIX) domain
same,inhibition of endothelial sprouting,[1]; rat aortic ring assay (abstract),endothelial sprouting in a rat aortic ring assay
same,cancer progression in mouse melanoma model,mouse melanoma model,cancer progression in a mouse melanoma model
same,melanoma cell migration,"melanoma cell; in vitro, previously demonstrated by the authors, no ref in abstract",able to inhibit melanoma cell migration
same,"melanoma cell migration, compared with NC1(XIX) domain",melanoma cell; ref [24],reproduced the whole NC1(XIX) domain effect on melanoma cell migration
same,direct binding to α5β1 (conclusion),α5β1 integrin,binds to both αvβ3 and α5β1 integrins in a direct manner
same,tumor cell migration,tumor cell,inhibits in vitro tumor cell migration
